Test results from ChEMBL document CHEMBL5104111, “Boron-Containing heterocycles as promising pharmacological agents” (Bioorg Med Chem, 2022).
≈ marks a conversion by molar mass, not a printed value.

tested on: Mycobacterium tuberculosis variant bovis; assay: Antibacterial activity against Mycobacterium bovis BCG assessed as bacterial growth inhibition; format: functional

Which MIC does the source give for `O=C(NCCOCCOCCNC(=O)c1ccc2c(c1)B(O)OC2)c1ccc2c(c1)COB2O` here?
The MIC was 0.39 µM (≈ 0.183 µg/mL).

For `O=C(NCCCOCCOCCOCCCNC(=O)c1ccc2c(c1)B(O)OC2)c1ccc2c(c1)COB2O`, which MIC is on record?
The MIC was 0.39 µM (≈ 0.211 µg/mL).

For `O=C(NCCNC(=O)c1ccc2c(c1)B(O)OC2)c1ccc2c(c1)B(O)OC2`, which MIC is on record?
Its MIC is 0.78 µM (≈ 0.296 µg/mL).
